ChEMBL document CHEMBL1914289, “Discovery of novel Cobactin-T based matrix metalloproteinase inhibitors via a ring closing metathesis strategy” (Bioorg Med Chem Lett, 2011)
Values belong to the molecule of their own block, whether it stands above or below them.

Experiments:
[1] = biological target: Matrix metalloproteinase-9 (Homo sapiens, UniProt P14780); test: Inhibition of human MMP9 catalytic domain (amino acids 107 to 446) using acetyl-Cys(Eu)-Pro-Leu-Gly-Leu-Lys-(QSY7)-Ala-Arg-amide as substrate preincubated for 1 hrs before substrate addition measured after 15 mins by fluorimetry
[2] = biological target: 72 kDa type IV collagenase (Homo sapiens, UniProt P08253); test: Inhibition of full length human MMP2 (amino acids 1 to 660) using acetyl-Cys(Eu)-Pro-Leu-Gly-Leu-Lys-(QSY7)-Ala-Arg-amide as substrate preincubated for 1 hrs before substrate addition measured after 15 mins by fluorimetry
[3] = biological target: MMP-2/MMP-9 (Homo sapiens) (UniProt P08253+P14780); test: Selectivity ratio of IC50 for full length human MMP2 (amino acids 1 to 660) to IC50 for human MMP9 catalytic domain (amino acids 107 to 446)
[4] = Volume of distribution at steady state in rat at 0.5 mg/kg, iv; type: ADME, organism-based; set-up: dose 0.5 mg/kg, route intravenous; conditions: in vivo, read-out: Vdss
[5] = Half life in mouse at 10 mg/kg, po; type: ADME, organism-based; set-up: dose 10 mg/kg, route oral; conditions: in vivo
Rattus norvegicus = test: (§1) AUC in rat at 0.5 mg/kg, iv; type: ADME, organism-based, Plasma; set-up: dose 0.5 mg/kg, route intravenous; conditions: in vivo
CYP3A4 = CYP3A4 (Homo sapiens, UniProt P08684); test: Inhibition of CYP 3A4 at 1 uM; type: ADME
Salmonella typhimurium = test: Induction of mutagenicity in Salmonella Typhimurium by AMES test; type: toxicity, organism-based; conditions: salmonella enterica subsp. enterica serovar typhimurium
[6] = Cmax in rat at 0.5 mg/kg, iv; type: ADME, organism-based; set-up: dose 0.5 mg/kg, route intravenous; conditions: in vivo
Collagenase 3 = Collagenase 3 (Homo sapiens, UniProt P45452); test: Inhibition of human MMP13 catalytic domain (amino acids 103 to 268) using acetyl-Cys(Eu)-Pro-Leu-Gly-Leu-Lys-(QSY7)-Ala-Arg-amide as substrate preincubated for 1 hrs before substrate addition measured after 15 mins by fluorimetry
[7] = Cmax in mouse at 10 mg/kg, po; type: ADME, organism-based; set-up: dose 10 mg/kg, route oral; conditions: in vivo
CYP2D6 = CYP2D6 (Homo sapiens, UniProt P10635); test: Inhibition of CYP 2D6 at 1 uM; type: ADME
[8] = biological target: Voltage-gated inwardly rectifying potassium channel KCNH2 (Homo sapiens, UniProt Q12809); test: Binding affinity to human Erg at 10 uM
[9] = Half life in rat at 0.5 mg/kg, iv; type: ADME, organism-based; set-up: dose 0.5 mg/kg, route intravenous; conditions: in vivo
Stromelysin-1 = Stromelysin-1 (Homo sapiens, UniProt P08254); test: Inhibition of human MMP3 catalytic domain (amino acids 100 to 265) using acetyl-Cys(Eu)-Pro-Leu-Gly-Leu-Lys-(QSY7)-Ala-Arg-amide as substrate preincubated for 1 hrs before substrate addition measured after 15 mins by fluorimetry
Interstitial collagenase = biological target: T1, Interstitial collagenase (Homo sapiens, UniProt P03956); test: Inhibition of human MMP1 catalytic domain (amino acids 100 to 262) using acetyl-Cys(Eu)-Pro-Leu-Gly-Leu-Lys-(QSY7)-Ala-Arg-amide as substrate preincubated for 1 hrs before substrate addition measured after 15 mins by fluorimetry
T1 sequence (P03956 whole entry): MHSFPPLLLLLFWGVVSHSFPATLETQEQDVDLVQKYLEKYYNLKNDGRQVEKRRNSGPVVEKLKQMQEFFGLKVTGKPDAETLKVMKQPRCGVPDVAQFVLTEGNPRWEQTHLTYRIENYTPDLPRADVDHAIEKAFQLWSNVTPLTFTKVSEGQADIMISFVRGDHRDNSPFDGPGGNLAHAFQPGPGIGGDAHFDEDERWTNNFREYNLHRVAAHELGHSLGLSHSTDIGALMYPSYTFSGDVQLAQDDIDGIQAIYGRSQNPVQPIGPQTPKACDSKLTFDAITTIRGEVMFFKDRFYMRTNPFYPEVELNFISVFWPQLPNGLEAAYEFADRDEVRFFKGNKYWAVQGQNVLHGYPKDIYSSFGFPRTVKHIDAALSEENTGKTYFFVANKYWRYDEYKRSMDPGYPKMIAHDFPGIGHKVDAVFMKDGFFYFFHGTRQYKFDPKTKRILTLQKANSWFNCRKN

Homo sapiens [10] = organism: Homo sapiens; test: Selectivity ratio of IC50 for human MMP3 catalytic domain (amino acids 100 to 265) to IC50 for full length human MMP2 (amino acids 1 to 660)
Homo sapiens [11] = organism: Homo sapiens; test: Selectivity ratio of IC50 for human MMP3 catalytic domain (amino acids 100 to 265) to IC50 for human MMP9 catalytic domain (amino acids 107 to 446)
[12] = as §1; type: ADME, organism-based, Plasma; set-up: dose 0.5 mg/kg, route intravenous; conditions: plasma
[13] = Clearance in rat at 0.5 mg/kg, iv; type: ADME, organism-based; set-up: dose 0.5 mg/kg, route intravenous; conditions: in vivo

Chain of 72 kDa type IV collagenase (P08253 whole entry, the tested form may be a part): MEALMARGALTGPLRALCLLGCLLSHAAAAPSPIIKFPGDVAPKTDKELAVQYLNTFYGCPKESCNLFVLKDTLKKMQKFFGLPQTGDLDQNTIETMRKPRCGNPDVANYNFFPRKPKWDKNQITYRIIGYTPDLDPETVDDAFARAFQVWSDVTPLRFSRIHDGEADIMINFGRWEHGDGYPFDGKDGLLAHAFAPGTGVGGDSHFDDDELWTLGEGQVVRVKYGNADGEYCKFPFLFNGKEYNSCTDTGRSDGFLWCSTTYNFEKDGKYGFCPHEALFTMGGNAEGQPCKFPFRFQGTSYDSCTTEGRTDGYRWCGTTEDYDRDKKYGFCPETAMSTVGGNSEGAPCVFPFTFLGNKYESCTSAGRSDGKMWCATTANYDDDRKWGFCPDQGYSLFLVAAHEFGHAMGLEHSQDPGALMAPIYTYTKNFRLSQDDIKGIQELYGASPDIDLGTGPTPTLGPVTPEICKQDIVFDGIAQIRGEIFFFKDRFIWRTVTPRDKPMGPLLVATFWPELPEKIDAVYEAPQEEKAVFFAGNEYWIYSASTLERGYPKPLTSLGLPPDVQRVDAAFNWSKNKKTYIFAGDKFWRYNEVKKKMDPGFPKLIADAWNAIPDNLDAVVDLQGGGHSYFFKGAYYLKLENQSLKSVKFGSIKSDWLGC
Chain of Matrix metalloproteinase-9 (P14780 whole entry, the tested form may be a part): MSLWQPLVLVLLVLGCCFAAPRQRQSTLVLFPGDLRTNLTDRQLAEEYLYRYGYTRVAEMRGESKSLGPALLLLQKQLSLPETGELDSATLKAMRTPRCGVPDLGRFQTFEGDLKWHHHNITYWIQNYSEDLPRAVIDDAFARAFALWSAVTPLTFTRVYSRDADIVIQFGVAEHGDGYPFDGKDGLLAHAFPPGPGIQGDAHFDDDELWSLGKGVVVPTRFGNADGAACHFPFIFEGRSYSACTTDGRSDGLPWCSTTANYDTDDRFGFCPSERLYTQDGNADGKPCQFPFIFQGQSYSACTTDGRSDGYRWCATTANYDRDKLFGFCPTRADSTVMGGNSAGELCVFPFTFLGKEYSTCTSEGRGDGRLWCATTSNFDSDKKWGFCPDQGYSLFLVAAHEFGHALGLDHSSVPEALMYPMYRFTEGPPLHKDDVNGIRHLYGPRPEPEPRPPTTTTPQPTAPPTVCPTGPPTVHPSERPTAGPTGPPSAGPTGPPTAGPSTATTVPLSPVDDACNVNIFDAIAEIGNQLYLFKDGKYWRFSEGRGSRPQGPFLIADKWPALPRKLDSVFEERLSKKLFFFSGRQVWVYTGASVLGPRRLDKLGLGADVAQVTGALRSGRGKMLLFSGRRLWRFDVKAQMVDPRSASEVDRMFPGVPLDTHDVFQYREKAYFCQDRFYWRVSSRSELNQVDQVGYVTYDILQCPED
Chain of Stromelysin-1 (P08254 whole entry, the tested form may be a part): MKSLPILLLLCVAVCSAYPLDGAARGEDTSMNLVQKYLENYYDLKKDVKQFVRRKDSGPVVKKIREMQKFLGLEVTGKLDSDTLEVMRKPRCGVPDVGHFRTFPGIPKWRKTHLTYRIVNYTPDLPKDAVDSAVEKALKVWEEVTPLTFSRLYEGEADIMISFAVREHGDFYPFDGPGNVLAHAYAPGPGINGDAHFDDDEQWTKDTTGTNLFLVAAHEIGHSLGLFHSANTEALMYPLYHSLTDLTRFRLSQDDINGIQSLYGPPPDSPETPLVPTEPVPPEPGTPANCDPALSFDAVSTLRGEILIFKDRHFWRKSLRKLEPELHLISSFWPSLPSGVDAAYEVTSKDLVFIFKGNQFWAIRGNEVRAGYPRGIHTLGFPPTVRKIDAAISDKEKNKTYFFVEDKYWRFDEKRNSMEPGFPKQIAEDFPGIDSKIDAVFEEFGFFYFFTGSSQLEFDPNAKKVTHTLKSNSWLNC
Chain of Voltage-gated inwardly rectifying potassium channel KCNH2 (Q12809 whole entry): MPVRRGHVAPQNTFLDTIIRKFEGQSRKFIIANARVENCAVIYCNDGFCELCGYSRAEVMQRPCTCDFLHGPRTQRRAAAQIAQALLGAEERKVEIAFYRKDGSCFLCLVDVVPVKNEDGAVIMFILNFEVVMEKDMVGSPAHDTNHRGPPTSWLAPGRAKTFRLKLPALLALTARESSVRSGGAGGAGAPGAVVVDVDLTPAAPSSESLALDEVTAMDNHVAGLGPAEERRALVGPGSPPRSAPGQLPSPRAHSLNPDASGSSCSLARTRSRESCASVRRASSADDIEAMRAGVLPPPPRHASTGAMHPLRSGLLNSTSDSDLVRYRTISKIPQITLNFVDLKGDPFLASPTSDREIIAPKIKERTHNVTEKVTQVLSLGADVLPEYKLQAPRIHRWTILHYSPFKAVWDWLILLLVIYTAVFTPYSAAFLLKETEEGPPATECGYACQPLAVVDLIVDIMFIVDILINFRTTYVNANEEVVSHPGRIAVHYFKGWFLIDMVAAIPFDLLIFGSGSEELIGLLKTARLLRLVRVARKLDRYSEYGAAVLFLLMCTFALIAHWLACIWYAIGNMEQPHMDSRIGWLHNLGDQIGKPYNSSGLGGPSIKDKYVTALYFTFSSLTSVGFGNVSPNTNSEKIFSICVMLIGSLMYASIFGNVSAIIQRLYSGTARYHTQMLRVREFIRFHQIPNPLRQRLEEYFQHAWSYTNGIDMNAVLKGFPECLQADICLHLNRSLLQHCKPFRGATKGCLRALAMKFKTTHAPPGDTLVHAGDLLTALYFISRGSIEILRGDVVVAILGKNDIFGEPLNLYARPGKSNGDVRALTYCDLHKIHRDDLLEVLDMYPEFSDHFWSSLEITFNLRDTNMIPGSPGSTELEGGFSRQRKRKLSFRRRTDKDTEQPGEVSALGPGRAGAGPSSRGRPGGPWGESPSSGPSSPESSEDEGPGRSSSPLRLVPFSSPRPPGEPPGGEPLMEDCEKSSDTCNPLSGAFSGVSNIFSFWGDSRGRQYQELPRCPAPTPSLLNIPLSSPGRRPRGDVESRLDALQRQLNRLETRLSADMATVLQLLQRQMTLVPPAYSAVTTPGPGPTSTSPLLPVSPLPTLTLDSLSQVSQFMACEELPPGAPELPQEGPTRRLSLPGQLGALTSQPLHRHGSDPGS
Chain of CYP3A4 (P08684 whole entry): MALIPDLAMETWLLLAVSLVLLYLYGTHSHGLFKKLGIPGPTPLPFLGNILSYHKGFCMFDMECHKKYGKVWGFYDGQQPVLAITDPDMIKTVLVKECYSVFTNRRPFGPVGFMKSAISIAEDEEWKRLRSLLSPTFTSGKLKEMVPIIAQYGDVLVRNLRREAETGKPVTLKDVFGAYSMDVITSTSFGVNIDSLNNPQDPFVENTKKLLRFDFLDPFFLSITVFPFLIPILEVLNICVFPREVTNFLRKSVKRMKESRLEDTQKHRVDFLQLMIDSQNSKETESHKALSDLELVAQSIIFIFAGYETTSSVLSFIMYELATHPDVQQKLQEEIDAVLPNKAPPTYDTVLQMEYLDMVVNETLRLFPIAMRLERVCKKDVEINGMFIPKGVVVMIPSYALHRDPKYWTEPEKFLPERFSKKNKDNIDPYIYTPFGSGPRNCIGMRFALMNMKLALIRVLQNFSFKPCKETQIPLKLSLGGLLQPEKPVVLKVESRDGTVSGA
Chain of CYP2D6 (P10635 whole entry): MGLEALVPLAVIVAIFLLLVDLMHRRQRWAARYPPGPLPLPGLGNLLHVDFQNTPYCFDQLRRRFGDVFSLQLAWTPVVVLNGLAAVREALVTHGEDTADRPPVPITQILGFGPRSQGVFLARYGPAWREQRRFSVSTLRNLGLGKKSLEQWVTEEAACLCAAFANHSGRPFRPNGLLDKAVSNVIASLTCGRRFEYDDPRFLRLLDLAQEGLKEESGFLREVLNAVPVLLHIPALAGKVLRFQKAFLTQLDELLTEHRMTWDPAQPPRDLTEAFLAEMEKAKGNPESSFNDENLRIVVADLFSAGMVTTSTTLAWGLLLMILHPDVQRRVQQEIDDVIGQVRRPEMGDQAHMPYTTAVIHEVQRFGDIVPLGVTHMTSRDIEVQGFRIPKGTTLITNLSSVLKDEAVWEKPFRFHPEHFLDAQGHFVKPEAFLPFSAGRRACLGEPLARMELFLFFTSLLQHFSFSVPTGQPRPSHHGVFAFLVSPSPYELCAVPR

Structure (SMILES): O=C1NCC=CC[C@H]1NS(=O)(=O)c1ccc(Oc2ccc(Cl)cc2)cc1
IC50 [1]: > 1000 nM | IC50 [2]: > 1000 nM

Structure (SMILES): O=C1[C@H](NS(=O)(=O)c2ccc(-c3ccc(Cl)cc3)s2)CC=CCN1O
IC50 [1]: 16 nM | IC50 [2]: 11 nM

Structure (SMILES): Cc1ccc(C#Cc2ccc(S(=O)(=O)N(CCN3CCOCC3)[C@@H]3CC=CCN(O)C3=O)s2)cc1
IC50 [1]: 0.8 nM | IC50 [2]: 2.4 nM | Ratio IC50 [3]: 2

Structure (SMILES): O=C(N[C@@H]1CC=CCN(O)C1=O)c1ccc(Oc2ccc(Cl)cc2)cc1
IC50 [1]: 5090 nM | IC50 [2]: 2320 nM

Structure (SMILES): Cc1ccc(-c2ccc(S(=O)(=O)N(CCN3CCOCC3)[C@@H]3CC=CCN(O)C3=O)s2)cc1
IC50 [1]: 11 nM | IC50 [2]: 7 nM

Structure (SMILES): O=C1[C@H](NS(=O)(=O)c2ccc(-c3ccc(Cl)cc3)cc2)CC=CCN1O
IC50 [1]: 1510 nM | IC50 [2]: 85 nM

Structure (SMILES): CN1CCN(CCN([C@@H]2CC=CCN(O)C2=O)S(=O)(=O)c2ccc(Oc3ccc(Cl)cc3)cc2)CC1
Ratio IC50 [3]: 2

Structure (SMILES): COc1ccc(Oc2ccc(S(=O)(=O)N[C@@H]3CC=CCN(O)C3=O)cc2)cc1
IC50 [1]: 1 nM | IC50 [2]: 2 nM

Structure (SMILES): O=C1[C@@H](NS(=O)(=O)c2ccc(Oc3ccc(Cl)cc3)cc2)CC=CCN1O
IC50 [1]: 1120 nM | IC50 [2]: 1600 nM

Structure (SMILES): O=C1[C@H](NS(=O)(=O)c2ccc(Oc3ccc(Cl)cc3)cc2)CC=CCN1O
Vd [4]: 3.3 L/kg | AUC [12]: 1230 ng·h/mL | inhibition at 1 µM (CYP3A4): < 50% | Activity (Salmonella typhimurium): Non-toxic | Cmax [6]: 4.6 µM | IC50 (Collagenase 3): 0.4 nM | inhibition at 1 µM (CYP2D6): < 50% | Activity [8]: < 50% | clearance [13]: 7 mL/min/kg | half-life [9]: 14 h | IC50 (Stromelysin-1): 86 nM | IC50 (Interstitial collagenase): > 1000 nM | Ratio IC50 (Homo sapiens [10]): 100 | IC50 [1]: 0.58 nM | Ratio IC50 (Homo sapiens [11]): 100 | IC50 [2]: 0.57 nM

Structure (SMILES): CC1=CC[C@@H](NS(=O)(=O)c2ccc(Oc3ccc(Cl)cc3)cc2)C(=O)N(O)C1
IC50 [1]: 1.3 nM | IC50 [2]: 2 nM

Structure (SMILES): O=C1[C@H](N(CCN2CCCCC2)S(=O)(=O)c2ccc(Oc3ccc(Cl)cc3)cc2)CC=CCN1O
Ratio IC50 [3]: 2

Structure (SMILES): O=C1[C@H](NS(=O)(=O)c2ccc(Oc3ccc(Cl)cc3)cc2)CCCCN1O
IC50 [1]: 5.9 nM | IC50 [2]: 3.7 nM

Structure (SMILES): O=C1[C@H](NS(=O)(=O)c2ccc(Oc3ccccc3)cc2)CC=CCN1O
IC50 [1]: 2 nM | IC50 [2]: 1 nM

The remaining molecules from weak to strong by IC50 [1], led by results:

IC50 [1]: 17 nM | IC50 [2]: 16 nM
Structure (SMILES): O=C1[C@H](N(CCN2CCOCC2)S(=O)(=O)c2ccc(-c3ccc(Cl)cc3)s2)CC=CCN1O

IC50 [1]: 12 nM | IC50 [2]: 3 nM
Structure (SMILES): O=C1[C@H](NS(=O)(=O)c2ccc(Oc3ccncc3)cc2)CC=CCN1O

IC50 (Collagenase 3): 3 nM | IC50 (Stromelysin-1): 493 nM | IC50 (Interstitial collagenase): > 1000 nM | Ratio IC50 (Homo sapiens [10]): 100 | IC50 [1]: 11 nM | Ratio IC50 (Homo sapiens [11]): 100
Structure (SMILES): COc1ccc(-c2ccc(S(=O)(=O)N[C@@H]3CC=CCN(O)C3=O)s2)cc1

IC50 [1]: 9 nM | IC50 [2]: 4 nM
Structure (SMILES): Cc1ccc(-c2ccc(S(=O)(=O)N[C@@H]3CC=CCN(O)C3=O)s2)cc1

IC50 [1]: 2 nM | IC50 [2]: 2 nM
Structure (SMILES): O=C1[C@H](NS(=O)(=O)c2ccc(Oc3ccc(C(F)(F)F)cc3)cc2)CC=CCN1O

IC50 (Collagenase 3): 0.2 nM | IC50 (Stromelysin-1): 39 nM | IC50 (Interstitial collagenase): > 1000 nM | Ratio IC50 (Homo sapiens [10]): 100 | IC50 [1]: 0.46 nM | Ratio IC50 (Homo sapiens [11]): 100 | IC50 [2]: 0.53 nM
Structure (SMILES): O=C1[C@H](NS(=O)(=O)c2ccc(Oc3ccc(Cl)cc3)cc2)CC=C(CN2CCOCC2)CN1O

Vd [4]: 1.4 L/kg | half-life [5]: 1 h | AUC (Rattus norvegicus): 1831 ng·h/mL | inhibition at 1 µM (CYP3A4): < 50% | Cmax [6]: 4.4 µM | IC50 (Collagenase 3): 0.7 nM | Cmax [7]: 38.3 µM | inhibition at 1 µM (CYP2D6): < 50% | half-life [9]: 2 h | IC50 (Stromelysin-1): 90 nM | IC50 (Interstitial collagenase): > 1000 nM | Ratio IC50 (Homo sapiens [10]): 100 | IC50 [1]: 0.22 nM | Ratio IC50 (Homo sapiens [11]): 100 | IC50 [2]: 0.39 nM | Ratio IC50 [3]: 2
Structure (SMILES): O=C1[C@H](N(CCN2CCOCC2)S(=O)(=O)c2ccc(Oc3ccc(Cl)cc3)cc2)CC=CCN1O
Activity (Salmonella typhimurium): Non-toxic | Activity [8]: < 50%
